Results: the supplement of paper PMC10307832

Legend:
Assay in all cases: relative viability (nuclei count vs DMSO), 5 days (fraction); higher = more cells survive
[1] = compound: C1=CC=C2C(=C1)N=C(S2)C(C#N)C3=NC(=NC=C3)NCCC4=CN=CC=C4 + CC(C)C[C@H](NC(=O)[C@H](Cc1ccccc1)NC(=O)c1cnccn1)B(O)O [Bortezomib] (partner 0.002 µM)
Summary of the method: (§1)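 Each reported value is a median over duplicate plates. It expresses relative viability: treated-well nuclei count divided by vehicle-well nuclei count. Lung cancer cell lines in 1536-well plates were dosed by pin tool a day after seeding, alone with one drug or with a fixed anchor-drug dose plus five library-drug doses (not always all listed) in √10 steps, and nuclei were counted after 5 days.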

[2] = compound: C1=CC=C2C(=C1)N=C(S2)C(C#N)C3=NC(=NC=C3)NCCC4=CN=CC=C4 + COc1cc2c(Oc3ccc(NC(=O)C4(C(=O)Nc5ccc(F)cc5)CC4)cc3F)ccnc2cc1OCCCN1CCOCC1 [Foretinib] (partner 0.25 µM)
Summary of the method: as §1

Vandetanib + Linsitinib = compound: COc1cc2/c(=N/c3ccc(Br)cc3F)nc[nH]c2cc1OCC1CCN(C)CC1 [Vandetanib] + C[C@]1(O)C[C@@H](c2nc(-c3ccc4ccc(-c5ccccc5)nc4c3)c3c(N)nccn32)C1 [Linsitinib] (partner 1 µM)
Summary of the method: as §1

Vandetanib + Palbociclib = compound: COc1cc2/c(=N/c3ccc(Br)cc3F)nc[nH]c2cc1OCC1CCN(C)CC1 [Vandetanib] + CC(=O)c1c(C)c2cnc(Nc3ccc(N4CCNCC4)cn3)nc2n(C2CCCC2)c1=O [Palbociclib] (partner 0.5 µM)
Summary of the method: as §1

| Cell Line | relative viability ([1]; first compound 0.005 µM) | relative viability ([1]; first compound 0.01581 µM) | relative viability ([1]; first compound 0.05 µM) | relative viability ([1]; first compound 0.1581 µM) | relative viability ([1]; first compound 0.5 µM) | relative viability ([2]; first compound 0.005 µM) | relative viability ([2]; first compound 0.01581 µM) | relative viability ([2]; first compound 0.05 µM) | relative viability ([2]; first compound 0.1581 µM) | relative viability ([2]; first compound 0.5 µM) | relative viability (Vandetanib + Linsitinib; first compound 0.02 µM) | relative viability (Vandetanib + Linsitinib; first compound 0.06325 µM) | relative viability (Vandetanib + Linsitinib; first compound 0.2 µM) | relative viability (Vandetanib + Linsitinib; first compound 0.6325 µM) | relative viability (Vandetanib + Linsitinib; first compound 2 µM) | relative viability (Vandetanib + Palbociclib; first compound 0.02 µM) | relative viability (Vandetanib + Palbociclib; first compound 0.06325 µM) | relative viability (Vandetanib + Palbociclib; first compound 0.2 µM) | relative viability (Vandetanib + Palbociclib; first compound 0.6325 µM) | relative viability (Vandetanib + Palbociclib; first compound 2 µM) |
| --- | --- | --- | --- | --- | --- | --- | --- | --- | --- | --- | --- | --- | --- | --- | --- | --- | --- | --- | --- | --- |
| NCI-H1299 | 1.08 | 1.08 | 1.04 | 1.01 | 1.05 | 1.1 | 1.1 | 1.05 | 1.09 | 1.09 | 0.912 | 0.916 | 0.997 | 0.957 | 1 |  |  |  |  |  |
| NCI-H1395 |  |  |  |  |  | 0.868 | 0.912 | 1.05 | 0.996 | 0.967 | 1.1 | 1.09 | 0.934 | 0.968 | 1.18 | 0.635 | 0.602 | 0.641 | 0.609 | 0.567 |
| NCI-H1650 | 0.26 | 0.204 | 0.19 | 0.21 | 0.206 | 1.02 | 1.38 | 0.919 | 1.55 | 0.787 |  |  |  |  |  | 0.34 | 0.291 | 0.289 | 0.318 | 0.244 |
| NCI-H1792 |  | 1.04 | 0.941 | 1.11 | 0.534 |  |  |  |  |  | 0.559 | 0.605 | 0.559 | 0.547 | 0.454 | 0.639 | 0.626 | 0.636 | 0.634 | 0.501 |
| NCI-H1944 |  |  |  |  |  | 0.875 | 0.91 | 0.853 | 0.929 | 0.885 | 1.08 | 1.16 | 1.18 | 0.981 | 0.94 | 0.323 | 0.343 | 0.322 | 0.276 | 0.303 |
| IA-LM |  | 0.844 | 0.697 | 0.839 | 0.855 | 0.691 | 1.21 | 1.17 | 1.24 | 0.916 | 0.616 | 0.567 | 0.616 | 0.593 | 0.673 |  |  |  |  |  |
| NCI-H2342 |  |  |  |  |  | 0.926 | 1.17 | 0.997 | 1.04 | 1.17 |  |  |  |  |  | 0.525 | 0.507 | 0.518 | 0.477 | 0.569 |
| NCI-H358 |  |  |  |  |  | 0.635 | 0.677 | 0.776 | 0.772 | 0.642 | 0.764 | 0.708 | 0.201 | 0.501 | 0.301 | 0.146 | 0.162 | 0.119 | 0.133 | 0.109 |
| NCI-H2170 |  |  |  |  |  | 0.731 | 1.03 | 0.961 | 1.04 | 0.861 |  |  |  |  |  | 0.402 | 0.434 | 0.398 | 0.376 | 0.394 |
| NCI-H522 |  |  |  |  |  |  |  |  |  |  |  |  |  |  |  | 0.89 | 0.909 | 1.14 | 0.961 | 0.986 |
| Calu-6 | 0.943 | 0.946 | 0.912 | 1.02 | 0.915 | 0.875 | 0.873 | 0.817 | 0.884 | 0.822 | 0.939 | 0.861 | 0.911 | 0.975 | 0.876 |  |  |  |  |  |
| NCI-H1703 | 0.318 | 0.416 | 0.307 | 0.33 | 0.466 | 0.391 | 0.37 | 0.381 | 0.318 | 0.336 | 0.543 | 0.73 | 1.14 | 0.637 | 0.535 |  |  |  |  |  |
| NCI-H1793 |  |  |  |  |  | 0.714 | 0.71 | 0.58 | 0.775 | 0.679 | 0.87 | 0.74 | 0.819 | 0.897 | 0.587 | 0.325 | 0.305 | 0.302 | 0.296 | 0.261 |
| LK-2 |  |  |  |  |  | 1.21 | 1.21 | 1.29 | 1.06 | 1.64 | 1.08 | 0.513 | 0.909 | 0.9 | 0.319 | 0.57 | 0.811 | 0.859 | 0.58 | 0.66 |
| SK-MES-1 |  |  |  |  |  | 0.836 | 1.07 | 0.863 | 1.11 | 0.993 | 1.09 | 0.925 | 1.06 | 0.971 | 0.989 | 0.349 | 0.292 | 0.243 | 0.332 | 0.294 |
| NCI-H1623 |  |  |  |  |  | 0.9 | 0.858 | 0.769 | 0.888 | 0.819 |  |  |  |  |  |  |  |  |  |  |
| ChaGo-K-1 | 0.87 |  | 0.936 | 1.1 | 0.845 |  | 0.954 | 0.838 | 1.06 | 0.932 |  |  |  |  |  | 0.921 | 0.881 | 0.19 | 0.887 | 0.927 |
| NCI-H1563 | 0.808 | 0.769 | 0.886 | 0.873 | 0.798 | 0.85 | 0.922 | 1.03 | 0.952 | 0.914 | 1.24 | 1.06 | 1.18 | 1.19 | 1.11 |  |  |  |  |  |
| EBC-1 | 0.52 | 0.545 | 0.544 | 0.666 | 0.504 | 0.123 | 0.103 | 0.0991 | 0.112 | 0.0984 | 0.742 | 0.893 | 0.958 | 0.885 | 0.925 |  |  |  |  |  |
| NCI-H1648 |  |  |  |  |  |  |  |  |  |  |  |  |  |  |  | 0.27 | 0.245 | 0.2 | 0.284 | 0.24 |
